Results from patent publication US11141403B2, “Benzimidazoles and indoles as taro inhibitors” (MERCK SHARP & DOHME CORP., priority 2015, dated 2021).

Assays:
[1] = molecular target: TarO (Staphylococcus aureus, UniProt Q2G060); assay: TarO Biochemical Enzymatic Assay (LC-MS end point, C55-PP-GlcNAc (LIPID III) production); settings: TarO membrane preparation derived from MRSA COL; read-out: TARO inhibitor IC50
From the text: The pathway for the biosynthesis of wall teichoic acid (WTA) in Staphylococci involves a series of biochemical enzymatic reactions by proteins encoded by the tar genes (teichoic acid ribitol). The first enzymatic step in the synthesis of WTA is initiated by TarO, N-acetylglucosaminyl-1-P transferase, which catalyzes the transfer of N-acetyl-glucosamine-phosphate (GlcNAc-P) to an undecaprenyl phosphate (C55-P), also known as bactoprenyl phosphate, to generate C55-PP-GlcNAc (LIPID III).
The TarO biochemical enzymatic assay is a liquid chromatography-mass spectroscopy (LC-MS) based end point assay that measures C55-P-P-GlcNAc (LIPID III) production. The TarO biochemical enzymatic assay was performed in a 384-well microtiter plate (Labcyte) with a reaction volume of 20 μl. […] The linearity of C55-PP-GlcNAc concentration versus mass spectrometric signal (AC55-PP-GlcNAc/A15C-C55-PP-GlcNAc) was determined with purified C55-PP-GlcNAc. The IC50 values were calculated using the nonlinear regression analysis (sigmoidal dose response fit allowing for a variable slope) of percent inhibition data with minimum and maximum values set to 0 and 100 percent.

[2] = tested on: MRSA COL (MB5393); assay: TarO Inhibitor/β-Lactam Synergy Assay; type: cell-based, Staphylococcus aureus; settings: 20 hours
Method in brief: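 TarO inhibitors titrated 2-fold from 200 μM (2% DMSO) against MRSA COL, 5×10^5 CFU in CAMHB, with β-lactam fixed at clinical breakpoint (imipenem 4 μg/ml or dicloxacillin 8 μg/ml). Incubated 20 h at 37 °C without shaking; relative growth read as OD600.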

- IC50 [1]: 450 nM
SMILES: CCN(C(=O)CCn1c(C2CCCN(C(=O)OC(C)(C)C)C2)nc2ccccc21)C1CCCCC1 (stereo not shown) [Example 54]
- IC95 ([2]; TarO inhibitor alone, OD600, 95% growth inhibition, read-out: MITC95 TarO inhibitor alone, Bacteria: SA_MB5393): 100000 nM
- MITC95 TarO inhibitor + 4 μg/mL IPM; Bacteria: SA_MB5393 ([2]; in combination with 4 μg/mL imipenem, OD600): 1.56 µM
- MITC95 TarO inhibitor + 8 μg/mL DCX; Bacteria: SA_MB5393 ([2]; in combination with 8 μg/mL dicloxacillin, OD600): 12.50 µM
